Source: US20220024882A1, “NOVEL TUMOR ANTIGEN BINDING AGENTS AND USES THEREOF” (ITM Isotopen Technologien München AG, priority 2018, published 2022)
Several values for one entry are separate records, joined by “and”; a condition that tells them apart may be missing. Identical values can stand only once.

Columns and labels:
[1] = test system: PSMA-positive PC-3 PIP tumor-bearing mice; experiment: In vivo therapy study; parameters: species or system athymic nude BALB/c mice; settings: for first mouse of group euthanized / median survival / TGDI5 (tumor growth delay index, 5-fold increase of tumor size): 1 nmol per mouse; for TGDI5 (tumor growth delay index, 5-fold increase of tumor size): controls = 1.0
Experimental: Mice were obtained from Charles River Laboratories, Sulzfeld, Germany, at the age of 5-6 weeks. Female, athymic nude BALB/c mice were subcutaneously inoculated with PSMA-positive PC-3 PIP cells (4×10^6 cells in 100 μL Hank's balanced salt solution (HBSS)) on the right shoulder. Six days later, the tumors reached a size of about 30-160 mm^3 suitable for the performance of the in vivo therapy study. Mice were euthanized when a predefined endpoint criterion was reached or when the study was finalized at Day 84. Endpoint criteria were defined as (i) body weight loss of >15%, (ii) a tumor volume of >800 mm^3 (iii) a combination of body weight loss of >10% and a tumor volume of >700 mm^3 or (iv) signs of unease and pain or a combination thereof.
Six days after subcutaneous inoculation of 4×10^6 PC-3 PIP tumor cells inoculation, three groups with statistically similar body weight and tumor volumes were intravenously injected. One group was injected with only the vehicle (saline containing 0.05% bovine serum albumin (BSA); Group A; n=6), and another two groups with ^177Lu-Ibu-DAB-PSMA (Group B: 2 MBq, 1 nmol (n=6) and Group C: 5 MBq, 1 nmol (n=6)) at Day 0 of the therapy study (Table 7). The monitoring of mice and the assessment of the therapy study was conducted as described by Eiber et al., J. Nucl. Med., 2017, 58 (Suppl. 2) 67S-76S). In short, the mice were monitored by measuring body weight and tumor size every second day over a period of 12 weeks. The relative body weight (RBW) was defined as [BWx/BW0], where BWx is the body weight in grams at a given Day x and BW0 is the body weight in grams at Day 0. The tumor dimensions were determined by measuring the longest tumor axis (L) and its perpendicular axis (W) with a digital caliper. The tumor volume (V) was calculated according to the equation [V=0.5×(LW^2)]. The relative tumor volume (RTV) was defined as [TVx/TV0], where TVx is the tumor volume in mm^3 at a given day x, and TV0 is the tumor volume in mm^3 at Day 0.
The efficacy of the radionuclide therapy was expressed as the tumor growth delay (TGDx), which was calculated as the time required for the tumor volume to increase x-fold over the initial volume at Day 0. The tumor growth delay index [TGDIx=TGDx(T)/TGDx(C)] was calculated as the TGDx ratio of treated mice (T) over the TGDx average of control mice (C) for a 5-fold (x=5, TGD5) increase of the initial tumor volume. The median survival was calculated using GraphPad Prism software (version 7). Survival of mice was assessed using Kaplan-Meier curves to determine median survival of mice of each group using Graph Pad Prism software (version 7).

[2] = Whole-body activity measurements, tumor-bearing mice; assay type: in vivo, athymic nude Balb/c mice; settings: 4 h p.i., 30 MBq, 1 nmol i.v., activity right after injection = 100%
Experimental: (§1) In vivo experiments were approved by the local veterinarian department and conducted in accordance with the Swiss law of animal protection. Mice were obtained from Charles River Laboratories, Sulzfeld, Germany, at the age of 5-6 weeks. Female, athymic nude Balb/c mice were subcutaneously inoculated with PSMA-positive PC-3 PIP cells (6×10^6 cells in 100 μL Hank's balanced salt solution (HBSS) with Ca^2+/Mg^2+) on the right shoulder and with PSMA-negative PC-3 flu cells (5×10^6 cells in 100 μL HBSS Ca^2+/Mg^2+) on the left shoulder. Two weeks later, the tumors reached a size of about 80-300 mm^3 suitable for the performance of the imaging studies.
The single radioligands (specific activity: 30 MBq/nmol) were diluted in 0.9% NaCl containing 0.05% bovine serum albumin (BSA) and i.v. injected into PC-3 PIP/flu tumor bearing mice (30 MBq, 1 nmol, 100 μL) for SPECT/CT imaging purposes. The mice were measured in a dose calibrator at 4 h, 24 h, 48 h and 72 h p.i., respectively.

[3] = test system: PC-3 PIP/flu tumor-bearing mice; experiment: Biodistribution study in PC-3 PIP/flu tumor-bearing mice; assay type: in vivo, athymic nude Balb/c mice; settings: for PC-3 flu Tumor: PSMA-negative tumor xenograft; for PC-3 flu Tumor / PC-3 PIP Tumor: mice; for PC-3 PIP Tumor: PSMA-positive tumor xenograft
Experimental: as §1, with “biodistribution” for “imaging”
Biodistribution studies were performed 12-15 days after PC-3 PIP/flu tumor cell inoculation. […] The radioligands were injected in a lateral tail vein in a volume of 100-200 μL. Mice were euthanized at different time points after injection (p.i.) of the radioligands. Selected tissues and organs were collected, weighed and measured using a γ-counter. The results were decay-corrected and listed as a percentage of the injected activity per gram of tissue mass (% IA/g) (Table 3 and 4).
Mice were obtained from Charles River Laboratories, Sulzfeld, Germany, at the age of 5-6 weeks. Female, athymic nude BALB/c mice were subcutaneously inoculated with PSMA-positive PC-3 PIP cells (6×10^6 cells in 100 μL Hank's balanced salt solution (HBSS)) on the right shoulder and with PSMA-negative PC-3 flu cells (5×10^6 cells in 100 μL HBSS) on the left shoulder. Two weeks later, the tumors reached a size of about 80-300 mm^3 suitable for the performance of the biodistribution and imaging studies.
Biodistribution studies were performed 12-15 days after PC-3 PIP/flu tumor cell inoculation. ^177Lu-Ibu-sPSMA was diluted in 0.9% NaCl containing 0.05% bovine serum albumin (BSA) to prevent adhesion to the vial and syringe material. The radioligand was injected in a lateral tail vein in a volume of 100 μL. Mice were euthanized at different time points after injection (p.i.) of the radioligand. Selected tissues and organs were collected, weighed and measured using a γ-counter. The results were decay-corrected and listed as a percentage of the injected activity per gram of tissue mass (% IA/g) (Table 6, FIG. 18).

[4] = Whole-body activity measurements, non-tumor bearing mice; assay type: in vivo; settings: 4 h after injection, 25 MBq, 1 nmol i.v.
Experimental: All albumin-binding radioligands (molar activity: 25 MBq/nmol) were diluted in 0.9% NaCl containing 0.05% BSA and i.v. injected into non-tumor bearing mice (25 MBq, 1 nmol, 100 μL). The mice were measured in a dose calibrator at various time-points up to 56 h p.i. The radioligands were compared with previously obtained data from ^177Lu-PSMA-617.

[5] = 4 h p.i., PC-3 PIP/flu tumor-bearing mice
[6] = 24 h p.i., PC-3 PIP/flu tumor-bearing mice

Which results are given for CC(C)Cc1ccc(C(C)C(=O)NC(CCN)C(=O)NCCCCC(NC(=O)CN2CCN(CC(=O)O)CCN(CC(=O)O)CCN(CC(=O)O)CC2)C(=O)NCC2CCC(C(=O)NC(Cc3ccc4ccccc4c3)C(=O)NCCCCC(NC(=O)NC(CCC(=O)O)C(=O)O)C(=O)O)CC2)cc1 (stereo not shown) [^177Lu-Ibu-DAB-PSMA, metal not drawn]?
first mouse of group euthanized ([1]; 2 MBq): 26 days; median survival ([1]; 2 MBq): 34 days; TGDI5 (tumor growth delay index, 5-fold increase of tumor size) ([1]; 2 MBq): 1.6 and 1.6 ± 0.4; average relative body weight at the time of euthanasia ([1]; 5 MBq per mouse): 1.06±0.10; day on which the two mice with tumor regrowth reached the endpoint ([1]; 5 MBq per mouse): 70 days and 82 days; mice of the group in which the tumors disappeared entirely ([1]; 5 MBq per mouse, n=6): four; mice still alive at the end of the study at Day 84 ([1]; 5 MBq per mouse, n=6): four; first mouse of group euthanized ([1]; 5 MBq): 70 days; TGDI5 (tumor growth delay index, 5-fold increase of tumor size) ([1]; 5 MBq): not defined; median survival ([1]; 5 MBq, study end Day 84): undefined; whole-body retention of radioactivity [2]: 17%; Blood [3, 5]: 3.66 ± 0.45 % IA/g; Bone [3, 5]: 0.62 ± 0.08 % IA/g; Heart [3, 5]: 1.32 ± 0.10 % IA/g; Intestines [3, 5]: 0.71 ± 0.05 % IA/g; Kidneys [3, 5]: 19.4±1.84 % IA/g; Liver [3, 5]: 1.50 ± 0.12 % IA/g; Lung [3, 5]: 2.40 ± 0.31 % IA/g; Muscle [3, 5]: 0.54 ± 0.09 % IA/g; Salivary glands [3, 5]: 0.86 ± 0.38 % IA/g; Spleen [3, 5]: 1.14 ± 0.11 % IA/g; Stomach [3, 5]: 0.62 ± 0.12 % IA/g; Tumor-to-blood [3, 5]: 18.2 ± 2.69; Tumor-to-kidney [3, 5]: 3.01 ± 0.49; Tumor-to-liver [3, 5]: 44.6 ± 8.41; PC-3 flu Tumor ([3]; 4 h p.i.): 1.19 ± 0.30 % IA/g; PC-3 PIP Tumor ([3]; 4 h p.i.): 66.2 ± 11.0 % IA/g; Bone [3, 6]: 0.09 ± 0.02 % IA/g; Heart [3, 6]: 0.10 ± 0.01 % IA/g; Intestines [3, 6]: 0.11 ± 0.03 % IA/g; Kidneys [3, 6]: 6.00±0.68 % IA/g; Liver [3, 6]: 0.56 ± 0.10 % IA/g; Lung [3, 6]: 0.21 ± 0.03 % IA/g; Muscle [3, 6]: 0.05 ± 0.01 % IA/g; Salivary glands [3, 6]: 0.56 ± 0.37 % IA/g; Spleen [3, 6]: 0.32 ± 0.03 % IA/g; Stomach [3, 6]: 0.18 ± 0.13 % IA/g; Tumor-to-blood [3, 6]: 337 ± 40.4; Tumor-to-kidney [3, 6]: 8.88 ± 0.99; Tumor-to-liver [3, 6]: 98.3 ± 21.1; PC-3 flu Tumor ([3]; 24 h p.i.): 0.17 ± 0.01 % IA/g; PC-3 PIP Tumor ([3]; 24 h p.i.): 52.4 ± 2.35 % IA/g; whole-body retained activity [4]: 18%
